Laboratory results taken from ChEMBL document CHEMBL3885861, “Open TG-GATES”.

Species on record: Rattus norvegicus
Assay: Open TG-GATES - Regimen: Daily Repeat
Format: toxicity, organism-based, Sprague-Dawley
Parameters: regimen Daily Repeat, gender Male, age 6 weeks
Settings: in vivo, po, 0 mg/kg, route gavage, dose level Control; for APTT / Bas / Eos / Fbg / Hb / Ht / Lym / MCH / MCHC / MCV / Mono / Neu / PT / Plat / RBC / Ret / WBC: tissue Blood; for KIDNEY_L / KIDNEY_R / KIDNEY_TOTAL: tissue Kidney; for LIVER: tissue Liver; for A/G / ALP / ALT / AST / BUN / CRE / Ca / Cl / DBIL / GLC / IP / K / LDH / Na / PL / RALB / TBIL / TC / TG / TP / gamma-GTP: tissue Plasma

C[C@H]1O[C@H](O[C@H]2[C@H](O)[C@@H](O)[C@@H](O[C@H]3[C@H](O)[C@@H](O)C(O)O[C@@H]3CO)O[C@@H]2CO)[C@H](O)[C@@H](O)[C@@H]1N[C@H]1C=C(CO)[C@@H](O)[C@H](O)[C@H]1O (some centres not stated) [ACARBOSE]
TERMINAL_BW (72 h, time 3 day): 228.3 g | APTT (72 h, time 3 day): 16.7 s | Bas (72 h, time 3 day): 0% | Eos (72 h, time 3 day): 1.2% | Fbg (72 h, time 3 day): 274.6 mg/dL | Hb (72 h, time 3 day): 13.7 g/dL | Ht (72 h, time 3 day): 41.3% | Lym (72 h, time 3 day): 73.2% | MCH (72 h, time 3 day): 21.7 pg | MCHC (72 h, time 3 day): 33.1% | MCV (72 h, time 3 day): 65.4 fL | Mono (72 h, time 3 day): 3.2% | Neu (72 h, time 3 day): 21.4% | PT (72 h, time 3 day): 13 s | Plat (72 h, time 3 day): 129.5 x10_4/uL | RBC (72 h, time 3 day): 632.2 x10_4/ul | Ret (72 h, time 3 day): 7% | WBC (72 h, time 3 day): 102.7 x10_2/uL | KIDNEY_L (72 h, time 3 day): 1 g | KIDNEY_R (72 h, time 3 day): 1 g | KIDNEY_TOTAL (72 h, time 3 day): 2 g | LIVER (72 h, time 3 day): 10.3 g | A/G (72 h, time 3 day): 0.9 | ALP (72 h, time 3 day): 1816 IU/L | ALT (72 h, time 3 day): 42.4 IU/L | AST (72 h, time 3 day): 71 IU/L | BUN (72 h, time 3 day): 14 mg/dL | CRE (72 h, time 3 day): 0.2 mg/dL | Ca (72 h, time 3 day): 10.8 mg/dL | Cl (72 h, time 3 day): 104.2 meq/L | DBIL (72 h, time 3 day): 0.006 mg/dL | GLC (72 h, time 3 day): 173 mg/dL | IP (72 h, time 3 day): 7.5 mg/dL | K (72 h, time 3 day): 4 meq/L | LDH (72 h, time 3 day): 86.2 IU/L | Na (72 h, time 3 day): 140.6 meq/L | PL (72 h, time 3 day): 144.8 mg/dL | RALB (72 h, time 3 day): 2.6 g/dL | TBIL (72 h, time 3 day): 0.054 mg/dL | TC (72 h, time 3 day): 71.6 mg/dL | TG (72 h, time 3 day): 99 mg/dL | TP (72 h, time 3 day): 5.5 g/dL | gamma-GTP (72 h, time 3 day): 1 IU/L | TERMINAL_BW ([…], time 7 day): 273.8 g | TERMINAL_BW ([…], time 14 day): 316.7 g | TERMINAL_BW ([…], time 28 day): 390.9 g | APTT ([…], time 7 day): 18 s | Bas ([…], time 7 day): 0.2% | Eos ([…], time 7 day): 0.8% | Fbg ([…], time 7 day): 296.6 mg/dL | Hb ([…], time 7 day): 13.9 g/dL | Ht ([…], time 7 day): 41.6% | Lym ([…], time 7 day): 77.2% | MCH ([…], time 7 day): 21.3 pg | MCHC ([…], time 7 day): 33.3% | MCV ([…], time 7 day): 63.9 fL | Mono ([…], time 7 day): 2.6% | Neu ([…], time 7 day): 18.6% | PT ([…], time 7 day): 12.8 s | Plat ([…], time 7 day): 129.4 x10_4/uL | RBC ([…], time 7 day): 652.4 x10_4/ul | Ret ([…], time 7 day): 6.5% | WBC ([…], time 7 day): 89.4 x10_2/uL | APTT ([…], time 14 day): 22.2 s | Bas ([…], time 14 day): 0% | Eos ([…], time 14 day): 0.8% | Fbg ([…], time 14 day): 287.8 mg/dL | Hb ([…], time 14 day): 14.6 g/dL | Ht ([…], time 14 day): 43.2% | Lym ([…], time 14 day): 76% | MCH ([…], time 14 day): 20.3 pg | MCHC ([…], time 14 day): 33.8% | MCV ([…], time 14 day): 60.1 fL | Mono ([…], time 14 day): 2% | Neu ([…], time 14 day): 20% | PT ([…], time 14 day): 13.1 s | Plat ([…], time 14 day): 124.4 x10_4/uL | RBC ([…], time 14 day): 720 x10_4/ul | Ret ([…], time 14 day): 4.4% | WBC ([…], time 14 day): 107.6 x10_2/uL | APTT ([…], time 28 day): 20.5 s | Bas ([…], time 28 day): 0% | Eos ([…], time 28 day): 1.6% | Fbg ([…], time 28 day): 283.4 mg/dL | Hb ([…], time 28 day): 15.9 g/dL | Ht ([…], time 28 day): 45.7% | Lym ([…], time 28 day): 79.6% | MCH ([…], time 28 day): 19.9 pg | MCHC ([…], time 28 day): 34.8% | MCV ([…], time 28 day): 57.2 fL | Mono ([…], time 28 day): 2% | Neu ([…], time 28 day): 16.2% | PT ([…], time 28 day): 13.3 s | Plat ([…], time 28 day): 103.4 x10_4/uL | RBC ([…], time 28 day): 799.4 x10_4/ul | Ret ([…], time 28 day): 2.2% | WBC ([…], time 28 day): 93.1 x10_2/uL | KIDNEY_L ([…], time 7 day): 1.1 g | KIDNEY_R ([…], time 7 day): 1.1 g | KIDNEY_TOTAL ([…], time 7 day): 2.3 g | KIDNEY_L ([…], time 14 day): 1.1 g | KIDNEY_R ([…], time 14 day): 1.2 g | KIDNEY_TOTAL ([…], time 14 day): 2.3 g | KIDNEY_L ([…], time 28 day): 1.4 g | KIDNEY_R ([…], time 28 day): 1.3 g | KIDNEY_TOTAL ([…], time 28 day): 2.7 g | LIVER ([…], time 7 day): 13.2 g | LIVER ([…], time 14 day): 13.2 g | LIVER ([…], time 28 day): 15 g | A/G ([…], time 7 day): 0.8 | ALP ([…], time 7 day): 1472.4 IU/L | ALT ([…], time 7 day): 38.4 IU/L | AST ([…], time 7 day): 66.6 IU/L | BUN ([…], time 7 day): 16.4 mg/dL | CRE ([…], time 7 day): 0.2 mg/dL | Ca ([…], time 7 day): 11 mg/dL | Cl ([…], time 7 day): 103.6 meq/L | DBIL ([…], time 7 day): 0.004 mg/dL | GLC ([…], time 7 day): 173.8 mg/dL | IP ([…], time 7 day): 8.1 mg/dL | K ([…], time 7 day): 3.8 meq/L | LDH ([…], time 7 day): 83.8 IU/L | Na ([…], time 7 day): 142.4 meq/L | PL ([…], time 7 day): 160.4 mg/dL | RALB ([…], time 7 day): 2.7 g/dL | TBIL ([…], time 7 day): 0.052 mg/dL | TC ([…], time 7 day): 83.2 mg/dL | TG ([…], time 7 day): 115.6 mg/dL | TP ([…], time 7 day): 5.8 g/dL | gamma-GTP ([…], time 7 day): 1 IU/L | A/G ([…], time 14 day): 0.8 | ALP ([…], time 14 day): 1741.6 IU/L | ALT ([…], time 14 day): 42.6 IU/L | AST ([…], time 14 day): 72.2 IU/L | BUN ([…], time 14 day): 16 mg/dL | CRE ([…], time 14 day): 0.2 mg/dL | Ca ([…], time 14 day): 10.6 mg/dL | Cl ([…], time 14 day): 105.8 meq/L | DBIL ([…], time 14 day): 0.014 mg/dL | GLC ([…], time 14 day): 188 mg/dL | IP ([…], time 14 day): 6.4 mg/dL | K ([…], time 14 day): 4.1 meq/L | LDH ([…], time 14 day): 74.6 IU/L | Na ([…], time 14 day): 142 meq/L | PL ([…], time 14 day): 161.4 mg/dL | RALB ([…], time 14 day): 2.7 g/dL | TBIL ([…], time 14 day): 0.048 mg/dL | TC ([…], time 14 day): 74.4 mg/dL | TG ([…], time 14 day): 182.4 mg/dL | TP ([…], time 14 day): 6 g/dL | gamma-GTP ([…], time 14 day): 1 IU/L | A/G ([…], time 28 day): 0.8 | ALP ([…], time 28 day): 1131.6 IU/L | ALT ([…], time 28 day): 43.4 IU/L | AST ([…], time 28 day): 69.6 IU/L | BUN ([…], time 28 day): 17.2 mg/dL | CRE ([…], time 28 day): 0.2 mg/dL | Ca ([…], time 28 day): 10.8 mg/dL | Cl ([…], time 28 day): 104.4 meq/L | DBIL ([…], time 28 day): 0.014 mg/dL | GLC ([…], time 28 day): 184.8 mg/dL | IP ([…], time 28 day): 6.4 mg/dL | K ([…], time 28 day): 4.2 meq/L | LDH ([…], time 28 day): 121 IU/L | Na ([…], time 28 day): 141.6 meq/L | PL ([…], time 28 day): 146.6 mg/dL | RALB ([…], time 28 day): 2.8 g/dL | TBIL ([…], time 28 day): 0.056 mg/dL | TC ([…], time 28 day): 66.8 mg/dL | TG ([…], time 28 day): 158.2 mg/dL | TP ([…], time 28 day): 6.2 g/dL | gamma-GTP ([…], time 28 day): 1 IU/L
